Laboratory results published in US8415156B2, “Recombinant laminin-521” (Biolamina AB, priority 2010, dated 2013).

Experiments:
HS181 cells = assay: Single cell survival / cell adhesion, 1 day after plating (Example 1); assay type: cell-based, human; settings: for single cell survival / cells remaining attached 24 hours after plating: O3 medium without any additives, completely dissociated HS181 cells
Description: Human ES cells were cultured on r-laminin-521-coated laboratory dishes in chemically defined O3 medium (described in Rodin et al., Nature Biotechnol., vol. 28, pp. 611-615 (2010)) at 37° C. in 5% CO2. Cells were routinely passed once every 10-12 days by exposure to Trypsin-EDTA solution (GIBCO Invitrogen) for 5 minutes at 37° C. They were then gently pipetted to break into single-cell suspension and defined trypsin inhibitor (GIBCO Invitrogen) was added. The cell suspension was centrifuged […], the supernatant discarded, the cell pellet resuspended in prewarmed O3 medium, and cells were then passed through a 40 μm sieve. After that cells were plated on new r-laminin-521-coated dishes at a concentration 30 Kcells/cm^2 (1:25-1:30 split ratio). Cells were fed once a day with fresh medium prewarmed in an incubator for 1 hour, except for the first day after a passage, when only a few drops of fresh medium were added. Control cells of the same line were cultured on Matrigel (BD Biosciences) in O3 medium as described in Rodin et al., Nature Biotechnol., vol. 28, pp. 611-615 (2010). Control cells were passaged in pieces.
Ninety-six-well tissue cell culture plates were coated overnight at 4° C. with sterile solutions of the ECM proteins mouse LN-111 (Invitrogen), human recombinant LN-511, and human recombinant LN-521, all at a concentration of 30 μg/ml (5 μg/cm^2). For control cells, BD Matrigel™ hESC qualified (BD Biosciences) was used according to the manufacturer's instructions.
The assay was performed as described (Extracellular Matrix Protocols, 2000). Briefly, 96-well plates were coated by extracellular matrix proteins as described above and blocked by O3 medium containing bovine serum albumin. The ES cells were plated at a cell density of 600 cell/mm^2 upon extracellular matrix-coated plates and were left to adhere for either 1 hour or 1 day at the cell incubator. Non-adherent cells were washed away, and adherent cells were fixed for 20 min by 5% glutaraldehyde, stained by 0.1% Crystal Violet.

hES cells [1] = assay: Cell survival assay, 24 hours (Example 2); assay type: cell-based, human; settings: for survival of hES cells plated from single cell suspension after 24 hours: O3 medium, absence of ROCK inhibitor
Description: Tissue cell culture plates were coated overnight at 4° C. with sterile solutions of the ECM proteins, such as human recombinant LN-521, all at a concentration of 30 μg/ml (5 μg/cm^2). Control plates were coated with Matrigel according to the STEMCELL Technologies' instructions. Prior to use, dishes were pre-warmed in an incubator for one hour after which prewarmed O3 medium was added without additional washing of the dish. After applying a fresh LN-521 solution to a new dish, the remaining LN-521 solution could be used at least once more. All the adhesion, survival, and inhibition of survival experiments were carried out using fresh coating materials.
Briefly, 96-well plates were coated by extracellular matrix proteins as described above and blocked by O3 medium containing bovine serum albumin. The ES cells were plated at cell density of 50,000 cells/cm^2 onto extracellular matrix-coated plates and left to adhere for 1 hour in a cell incubator. After that the plates were washed 3 times with the medium to remove the non-adherent cells, and then the adherent cells were fixed for 20 minutes by 5% glutaraldehyde, stained by 0.1% Crystal Violet. (Kebo Lab, Spanga, Sweden, www.kebolab.se). After one hour and 3 washes with water, Crystal Violet was extracted with 10% acetic acid and quantified by measuring optical density at 570 nm. All the experiments were performed in quadruplicate.
The survival assay was performed as described for the cell adhesion assay above, except that the cells were left in the cell incubator for 24 hours. For inhibition of survival assay, the cells were kept in a medium with function blocking antibodies at the concentrations recommended by the manufacturer or pathway inhibitors at concentrations indicated in the text for 30 minutes, and then plated on the coated dishes. All the experiments were performed in quadruplicate.
Pluripotent hES cells express α1, α5, β1, β2 and γ1 laminin chains. To compare the adhesion and clonal survival of hES cells plated from single cell suspension to different coating substrata, hES cells growing as monolayers on LN-511 or as clusters on a feeder layer were trypsinized into single cell suspension in O3 medium and plated on cell culture dishes coated with Matrigel, LN-111, LN-511, LN-521 or a mixture of LN-511 and LN-521, in the absence or presence of a ROCK inhibitor (Y-27632) and analyzed after 24 hours.

[2] = test system: human embryonic stem cell; assay: Survival after dissociation into single cell suspension (description); assay type: cell-based; settings: O3 medium; 30 Kcells/cm^2; precoated dishes
Description: In other aspects, the present disclosure provides a new material, isolated laminin-521, which permits human embryonic stem cell survival after dissociation into single cell suspension. The stem cells were dissociated into single cell suspension by Trypsin-EDTA treatment, pelleted by centrifugation, resuspended into O3 medium, filtered through a 40 μm sieve, and plated at a density of 30 Kcells/cm^2 on cell culture dishes precoated by either isolated laminin-521, laminin-511, or Matrigel. After one day in culture, the cells plated on Matrigel died, as is known in the art.

human ES cells = settings: cited from earlier work
mouse ES cells = settings: without LIF or feeder cells; cited from earlier work
myosin light chain (MLC) = assay: Western blot of phosphorylated myosin light chain; assay type: cell-based, human; settings: one and six hours after plating
Description: HS181 cells were trypsinized into single cell suspension as described above. For inhibition experiments, the cells were kept in O3 medium with blocking antibodies or pathway inhibitors for 30 minutes and then 450K cells were plated on 35 mm dishes precoated with the appropriate matrix coating. For other experiments, same number of cells was plated directly after trypsinization. […] After two washings in ice-cold PBS, the plates with cells were snap frozen in liquid nitrogen and stored at −80° C. To prepare samples for western blots and ELISA, the plates were slowly thawed and kept on ice with 100-150 μl of lysis buffer (50 mM Tris-HCl, pH7.5, 150 mM NaCl, 0.5% deoxycholate, 0.5% SDS, 1% Triton X-100, 1% Igepal, Complete™ (Roche) and Phospho-Stop™ (Roche)) on top. Then, the cells were scraped, pipetted and sheared through a 27G ¾″ needle. After that, the cell pellets were clarified by centrifugation at 16,100 rcf for 15 minutes at 4° C. For western blots, 4-12% gradient gels were used for SDS electrophoresis and the proteins were transferred to PVDF membranes. The membrane was hybridized with the antibody of interest according to the manufacturer's instructions. Chemoluminescent HRP-substrate from Amersham Biosciences was used for visualization. For the densitometry analysis the films were scanned at 2,400 dpi and analyzed by the Chemilmager5500 program (1D-Multi Line densitometry mode). […]

Integrin α6β1 = Integrin α6β1 (Homo sapiens, UniProt P05556+P23229); settings: cited from earlier work
hES cells [3] = assay: Clonal survival of individualized hES cells (Example 4); assay type: cell-based, human; settings: mTeSR1
Description: hES cells were plated in mTeSR1 medium on different coatings at a density of 250 cells per cm^2 and monitored after 5 days in culture using an alkaline phosphatase staining kit.
Next, combinations of laminin-521 and E-Cadherin were tested to determine whether the combinations could sustain clonal survival of the cells. Fixed amounts of laminin-521 were used for the cell culture dish coating in combination with titrated E-Cadherin.
Additional tests were performed to test the effects of various modifications to the mTeSR1 medium. A mixture of E-Cadherin to laminin-521 in a ratio of about 1:10 w/w was used to coat the plates. […] Time-lapse photography of the cells confirmed that laminin-521/E-Cadherin coatings facilitated cell survival through proliferation of the single cells, not through the aggregation of different cells.

Sequence of Integrin α6β1 (P23229 24-1130): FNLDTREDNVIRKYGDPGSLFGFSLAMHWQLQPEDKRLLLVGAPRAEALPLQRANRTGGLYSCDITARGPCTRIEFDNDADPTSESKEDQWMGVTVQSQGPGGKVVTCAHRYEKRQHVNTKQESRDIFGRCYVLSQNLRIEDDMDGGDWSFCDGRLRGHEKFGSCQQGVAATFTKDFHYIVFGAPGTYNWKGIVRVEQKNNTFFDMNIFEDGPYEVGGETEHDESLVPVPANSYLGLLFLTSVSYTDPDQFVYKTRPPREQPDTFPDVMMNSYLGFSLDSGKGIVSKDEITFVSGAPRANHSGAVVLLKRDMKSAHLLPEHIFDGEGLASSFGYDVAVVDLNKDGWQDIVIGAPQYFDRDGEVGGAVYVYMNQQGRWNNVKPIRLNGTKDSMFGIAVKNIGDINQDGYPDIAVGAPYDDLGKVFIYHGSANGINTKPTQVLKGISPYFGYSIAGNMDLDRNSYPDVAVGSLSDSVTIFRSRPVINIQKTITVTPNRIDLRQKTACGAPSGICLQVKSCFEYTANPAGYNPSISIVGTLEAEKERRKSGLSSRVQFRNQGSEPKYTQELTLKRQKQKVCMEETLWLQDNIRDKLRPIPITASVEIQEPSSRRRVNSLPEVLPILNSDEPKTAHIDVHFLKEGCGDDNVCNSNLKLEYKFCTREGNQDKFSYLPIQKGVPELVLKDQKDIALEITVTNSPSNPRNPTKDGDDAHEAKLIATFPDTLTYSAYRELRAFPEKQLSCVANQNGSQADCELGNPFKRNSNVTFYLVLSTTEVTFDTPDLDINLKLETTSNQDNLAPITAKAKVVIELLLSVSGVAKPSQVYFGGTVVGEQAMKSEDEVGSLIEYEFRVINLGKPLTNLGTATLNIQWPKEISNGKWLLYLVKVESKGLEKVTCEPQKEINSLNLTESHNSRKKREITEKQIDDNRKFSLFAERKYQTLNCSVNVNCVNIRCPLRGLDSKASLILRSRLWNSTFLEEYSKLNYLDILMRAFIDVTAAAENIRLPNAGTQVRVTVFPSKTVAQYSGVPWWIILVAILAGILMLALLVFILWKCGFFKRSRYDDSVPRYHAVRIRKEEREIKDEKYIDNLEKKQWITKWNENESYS
Sequence of Integrin α6β1 (P05556 21-798): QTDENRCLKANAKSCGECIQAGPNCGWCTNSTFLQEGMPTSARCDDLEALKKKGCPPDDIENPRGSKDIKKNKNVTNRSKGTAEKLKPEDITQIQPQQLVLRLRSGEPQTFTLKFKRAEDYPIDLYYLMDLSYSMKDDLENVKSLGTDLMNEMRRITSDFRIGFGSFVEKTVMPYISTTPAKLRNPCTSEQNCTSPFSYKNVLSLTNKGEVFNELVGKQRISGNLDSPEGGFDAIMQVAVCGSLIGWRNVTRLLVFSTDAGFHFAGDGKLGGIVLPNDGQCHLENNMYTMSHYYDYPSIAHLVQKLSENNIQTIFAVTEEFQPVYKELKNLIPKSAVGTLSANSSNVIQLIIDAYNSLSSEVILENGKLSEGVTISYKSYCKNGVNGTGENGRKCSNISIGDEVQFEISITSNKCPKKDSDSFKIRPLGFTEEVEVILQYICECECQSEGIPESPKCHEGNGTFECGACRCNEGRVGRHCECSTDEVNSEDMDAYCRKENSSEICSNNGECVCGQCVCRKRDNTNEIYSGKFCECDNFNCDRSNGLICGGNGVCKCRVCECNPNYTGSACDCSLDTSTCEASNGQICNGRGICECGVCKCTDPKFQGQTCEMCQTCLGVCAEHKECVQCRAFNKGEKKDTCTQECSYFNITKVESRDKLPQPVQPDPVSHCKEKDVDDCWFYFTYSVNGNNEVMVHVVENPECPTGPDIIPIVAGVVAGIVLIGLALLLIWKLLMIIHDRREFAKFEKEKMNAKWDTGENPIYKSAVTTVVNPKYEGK

C[C@@H](N)[C@H]1CC[C@H](C(=O)Nc2ccncc2)CC1 [Y-27632, reference compound]
cells remaining attached after one day with ROCK inhibitor (HS181 cells; O3 medium treated with Y-27632, 5 coatings): remained attached on all 5 coatings | cell shape of cells growing on LN-521 24 hours after plating (hES cells [1]; LN-521 row: absence of ROCK inhibitor, Y-27632 row: presence of ROCK inhibitor): spindle or crescent like shape | survival of hES cells after 24 hours in the presence of ROCK inhibitor (hES cells [1]; all coating surfaces): survived on all surfaces

LN-111: mouse laminin-111 (Invitrogen), indicated as LN-111 if not otherwise stated
single cell survival / cells remaining attached 24 hours after plating (HS181 cells): almost no cells remained attached | survival of hES cells plated from single cell suspension after 24 hours (hES cells [1]): did not survive

LN-121: human recombinant laminin with α1, β2 and γ1 chains produced in HEK293 cells
survival of hES cells plated from single cell suspension after 24 hours (hES cells [1]): failed to survive

LN-511: human recombinant laminin-511 coating
survival of hES cells plated from single cell suspension after one day in culture [2]: in most cases on laminin-511 survived and started to proliferate | time human ES cells maintain pluripotency and can generate teratomas in SCID mice (human ES cells): over 3 months | single cell survival / cells remaining attached 24 hours after plating (HS181 cells): at a less extent | time of supported self-renewal of mouse ES cells (mouse ES cells): over 5 months | phosphorylation of MLC compared with cells on Matrigel and LN-111 (myosin light chain (MLC)): even higher | binding affinity of integrin α6β1 (Integrin α6β1): higher than that for LN-111 | survival of hES cells plated from single cell suspension after 24 hours (hES cells [1]): did so as single cells

albumin: albumin of the mTeSR1 medium, concentration increased 2×
effect of 2× increase in albumin concentration on clonal survival (hES cells [3]; laminin-521/E-Cadherin matrix): significantly improved clonal survival

human recombinant LN-111: human recombinant laminin with α1, β1 and γ1 chains produced in HEK293 cells
survival of hES cells plated from single cell suspension after 24 hours (hES cells [1]): failed to survive

B1: E-Cadherin: epithelial-cadherin, most abundant cadherin isoform on the human ES cell surface (protein, UniProt P12830 155-882, looked up)
Cadherin-1: DWVIPPISCPENEKGPFPKNLVQIKSNKDKEGKVFYSITGQGADTPPVGVFIIERETGWLKVTEPLDRERIATYTLFSHAVSSNGNAVEDPMEILITVTDQNDNKPEFTQEVFKGSVMEGALPGTSVMEVTATDADDDVNTYNAAIAYTILSQDPELPDKNMFTINRNTGVISVVTTGLDRESFPTYTLVVQAADLQGEGLSTTATAVITVTDTNDNPPIFNPTTYKGQVPENEANVVITTLKVTDADAPNTPAWEAVYTILNDDGGQFVVTTNPVNNDGILKTAKGLDFEAKQQYILHVAVTNVVPFEVSLTTSTATVTVDVLDVNEAPIFVPPEKRVEVSEDFGVGQEITSYTAQEPDTFMEQKITYRIWRDTANWLEINPDTGAISTRAELDREDFEHVKNSTYTALIIATDNGSPVATGTGTLLLILSDVNDNAPIPEPRTIFFCERNPKPQVINIIDADLPPNTSPFTAELTHGASANWTIQYNDPTQESIILKPKMALEVGDYKINLKLMDNQNKDQVTTLEVSVCDCEGAAGVCRKAQPVEAGLQIPAILGILGGILALLILILLLLLFLRRRAVVKEPLLPPEDDTRDNVYYYDEEGGGEEDQDFDLSQLHRGLDARPEVTRNDVAPTLMSVPRYLPRPANPDEIGNFIDENLKAADTDPTAPPYDSLLVFDYEGSGSEAASLSSLNSSESDKDQDYDYLNEWGNRFKKLADMYGGGEDD
clonal survival of individualized hES cells (hES cells [3]; 250 cells per cm^2, 5 days, alkaline phosphatase staining): Neither laminin-521 nor E-Cadherin alone permitted efficient clonal survival
